According to PMC10102027, “Helquat dyes targeting G-quadruplexes as a new class of anti-HIV-1 inhibitors” (Scientific Reports, 2023):

Tests used:
[1] = test system: ss G4 LTR wild-type oligonucleotide; assay: Light-up experiment, ss G4 LTR; assay type: binding, HIV-1; conditions: 4 μM compound
Procedure: There are many small molecular probes for specific G4 visualization in cells. […] To distinguish specifically the potential light-up triggered by helquat binding to G-quadruplexes in the HIV-1 LTR, we employed two control oligonucleotides, both unable to form G-quadruplexes (Fig. 6A): an LTR oligonucleotide sequence with two point mutations precluding G4 formation and an LTR oligonucleotide with a scrambled sequence (both adopted from[41]).
The selected compounds were incubated in the presence of the G4 LTR wild-type (wt) oligonucleotide, the G4 LTR M4 + M5 oligonucleotide containing mutations that disabled G-quadruplex formation (described previously[41]), and the G4 LTR scrambled-sequence oligonucleotide, or the buffer-only control. The compounds were tested at a compound:oligonucleotide ratio of 2:1 (4 μM compounds and 2 μM oligonucleotide) in PBS in a 384-well plate. Emission spectra were measured after excitation at 280 nm in a Tecan Infinite M1000 plate reader. The fluorescent image of the plate was taken with the Bio-Rad ChemiDoc imaging system after UV-light excitation. The Light-up titration experiment was performed similarly as described above with the exception that 4 μM compound 12 was incubated with serial dilutions (1:1) of oligonucleotides (ss G4 LTR wild type, G4 c-myc and G4 c-kit1) spanning final concentrations 2 to 0.002 μM. The excitation at 280 nm and emission at 600 nm were used to monitor the Light-up.

ds G4 LTR = assay: Light-up experiment, ds G4 LTR; assay type: binding, HIV-1; conditions: 4 μM compound, excitation 280 nm
Procedure: (§1) The intensity of fluorescence measured after the incubation with both oligonucleotides incompetent of G-quadruplex formation was almost identical, with the maximum intensity 2.5 times lower than that of the G-quadruplex-forming oligonucleotide (wt). […] To examine the specificity of ligand 12, we have repeated the light-up experiment with single-stranded G4 LTR in parallel with double-stranded G4 LTR and additional G-quadruplexes (c-myc, c-kit1 and h-telo). […] To further evaluate the specificity of ligand 12, we performed the light-up titration experiment incubating compound 12 with serial dilutions (1:1) of oligonucleotides (ss G4 LTR wild type, G4 c-myc and c-kit1) spanning final concentrations 2 to 0.002 μM (Supplement Fig. S3B). […] This can indicate a slight preference of ligand 12 for ss G4 LTR than for c-myc at lower oligonucleotide concentrations.
(§2) The selected compounds were incubated in the presence of the G4 LTR wild-type (wt) oligonucleotide, the G4 LTR M4 + M5 oligonucleotide containing mutations that disabled G-quadruplex formation (described previously[41]), and the G4 LTR scrambled-sequence oligonucleotide, or the buffer-only control. The compounds were tested at a compound:oligonucleotide ratio of 2:1 (4 μM compounds and 2 μM oligonucleotide) in PBS in a 384-well plate. Emission spectra were measured after excitation at 280 nm in a Tecan Infinite M1000 plate reader. […]

c-myc G-quadruplex = assay: Light-up experiment, c-myc; assay type: binding; conditions: 4 μM compound, excitation 280 nm
Procedure: as §1, §2

c-kit1 G-quadruplex = assay: Light-up experiment, c-kit1; assay type: binding; conditions: 4 μM compound, excitation 280 nm
Procedure: as §1, §2

h-telo G-quadruplex = assay: Light-up experiment, h-telo; assay type: binding; conditions: 4 μM compound, excitation 280 nm
Procedure: as §1, §2

[2] = 2 μM oligonucleotide, excitation 280 nm

Cn1cc(/C=C/c2cc(/C=C/c3cn(C)c4ccccc34)[n+]3c(c2)-c2c(ccc4c2-c2cccc[n+]2CCC4)CCC3)c2ccccc21 [Compound 12]
fluorescence light-up [1, 2]: strong and specific fluorescence | maximum fluorescence intensity with non-G4-forming oligonucleotides (M4 + M5, scrambled), times lower than with wt [1, 2]: 2.5 times | fluorescence in light-up titration, ss G4 LTR versus c-myc and c-kit1 ([1]; oligonucleotide concentration of 0.5 μM and below, emission 600 nm): stronger fluorescence after incubation with ss G4 LTR | fluorescence light-up (ds G4 LTR): very weak fluorescence | fluorescence light-up (c-myc G-quadruplex): strong fluorescence | fluorescence light-up (c-kit1 G-quadruplex): strong fluorescence | fluorescence light-up (h-telo G-quadruplex): low fluorescence
